The source of these data is article PMC12649225, “Machine Learning-Identified Potent Antimicrobial Peptides Against Multidrug-Resistant Bacteria and Skin Infections” (Antibiotics, 2025).

Data set [1] has as its system S. aureus JAR060131. As to the kind of experiment: microbe, parasite or virus in culture. It is filed as cell-based, Staphylococcus aureus. The following applies: RPMI; 18 h; 22 passages. Here is the method: (§1) The potential for resistance development to GDST-038, GDST-045, and their RI variants was assessed as described by Habets and Brockhurst. Resistance development to the antibiotics rifampicin and ciprofloxacin (both from Sigma-Aldrich) was evaluated for comparison. Briefly, 10 μL of a mid-logarithmic phase culture of A. baumannii RUH875 or S. aureus JAR060131 was added to 90 μL of peptide (final concentrations: 0.23 to 120 μM) or antibiotic (final concentrations: 0.03 to 256 μg/mL) solution in RPMI, in 96-well polypropylene round-bottom plates (Costar). All incubations were performed in quadruplicate. Plates were sealed with breathable seals (Greiner) and incubated at 37 °C with shaking at 120 rpm in a humidified environment for 18 h (S. aureus) or 48 h (A. baumannii).
(§2) The minimum inhibitory concentration (MIC), defined as the lowest concentration that inhibited visible bacterial growth, was then determined. Subsequently, 2 μL from the 0.5-fold MIC condition was transferred to fresh medium containing a concentration series ranging from 0.5- to 8-fold the new MIC. This procedure was repeated over 22 consecutive passages to monitor resistance development.

Data set [2] concerns A. baumannii RUH875. The data set can be described thus: SYTOX Green membrane permeabilization assay. The class given is cell-based, Acinetobacter baumannii. Particulars: 1- and 2-fold the LC99.9_2h concentrations; over 90 min; RPMI, 1 μM SYTOX Green. On the procedure:
Control samples were exposed to RPMI only. As a positive control, heat-killed bacteria were incubated at 95 °C for 10 min to induce maximum membrane permeabilization. Fluorescence (excitation: 485 nm, emission: 520 nm) was monitored every minute for 90 min at 37 °C using a […] plate reader (Ortenberg, Germany), with peptides and positive controls added after the third cycle. Background fluorescence (SYTOX Green alone) was subtracted from all values. All assays were performed in triplicate and repeated twice independently.

The test system of data set [3] is A. baumannii RUH875 biofilm. The data set can be described thus: Biofilm killing. It is filed as cell-based, Acinetobacter baumannii. Here is the method:
(§3) Mid-logarithmic phase cultures of A. baumannii RUH875 or S. aureus JAR060131 were diluted to 1 × 10^8 CFU/mL in RPMI supplemented with 1% glucose. A total of 100 μL of each suspension was added to flat-bottom polystyrene 96-well microplates (Costar) and incubated under static conditions at 37 °C in a humidified atmosphere for 24 h to allow biofilm formation. After 24 h, planktonic bacteria were removed, and wells were carefully washed with 100 μL PBS [60]. […] Control samples were exposed to 100 μL of PBS only.
(§4) Biofilms were treated at 37 °C for either 2 or 24 h. […] Plates were sealed and sonicated for 5 min (Elmasonic, Singen, Germany; 45 kHz) at room temperature to dislodge adherent bacteria. […] Quantitative cultures were performed by plating serial 10-fold dilutions on sheep blood agar, and results were expressed as log10 CFU per well. The lower limit of detection was three CFU. Each condition was tested in six replicates.

Data set [4] has as its system BJ human skin fibroblast cells. The data set can be described thus: WST-1 metabolic activity assay (cell viability). Particulars: lowest concentration causing <70% metabolic activity (WST-1); BJ fibroblasts; 24 h; DMEM with 2% FBS; 0.05-60 µM. Here is the method: (§5) BJ human skin fibroblast cells (ATCC CRL-2522; RRID: CVCL_3653; LGC Standards, Germany (September 2023)) were cultured in Dulbecco’s Modified Eagle Medium (DMEM; Gibco, Waltham, MA, USA) supplemented with 10% (v/v) foetal bovine serum (FBS; Sigma-Aldrich) and 1% (v/v) penicillin/streptomycin (pen/strep; Gibco). Cell suspensions (5 × 10^5 cells/mL) were seeded into 96-well plates (100 μL/well; Thermo Scientific, Waltham, MA, USA) and allowed to adhere for 24 h. Monolayers were then exposed to two-fold serial dilutions of GDST peptides, their RI variants, and reference peptides (final concentrations: 0.05 to 60 µM) in fresh DMEM with 2% (v/v) FBS for 24 h at 37 °C in a humidified atmosphere with 5% CO2.
(§6) Cell viability and membrane integrity were assessed using the water-soluble tetrazolium salt (WST-1; Roche, Basel, Switzerland) assay and the lactate dehydrogenase (LDH; Abcam, Cambridge, UK) assay, respectively, according to manufacturer instructions. Results were expressed as percentages of metabolic activity and LDH leakage relative to untreated control cells and the positive lysis control, respectively. The cytotoxic concentration was defined as the lowest peptide concentration causing <70% metabolic activity and >30% LDH leakage. All experiments were performed in triplicate.

The subject of data set [5] is BJ human skin fibroblast cells. As to the kind of experiment: LDH leakage assay (membrane integrity). Particulars: lowest concentration causing >30% LDH leakage; BJ fibroblasts; 24 h; DMEM with 2% FBS; 0.05-60 µM. On the procedure:
as §5, §6

Data set [6] concerns A. baumannii RUH875. The data set can be described thus: microbe, parasite or virus in culture. It is filed as cell-based, Acinetobacter baumannii. The following applies: RPMI, 48 h. On the procedure: as §1, §2
The test system of data set [7] is S. aureus JAR060131. The data set can be described thus: 3D human skin equivalent (HSE) infection model. The class given is cell-based, Staphylococcus aureus. Here is the method:
Human keratinocytes (Ker-CT cell line; ATCC CRL-4048; RRID: CVCL_S877; ATCC, Manassas, VA, USA (October 2017)) were used to generate human skin equivalents (HSEs) following the method described by Gent et al.. Briefly, HSEs were cultured for 12 days, after which the culture medium was replaced with antibiotic-free medium, and cells were grown for an additional two days before infection (Figure S2). On the day of infection, HSEs were inoculated with 300 µL of S. aureus JAR060131 suspension (3 × 10^5 CFU) and incubated for 1 h at 37 °C with 5% CO2. Following incubation, the bacterial suspension was removed, and HSEs were washed once with 500 µL PBS. HSEs were then treated for 4 h with PBS (control), GDST-038, GDST-045, their RI variants, or the reference peptide SAAP-148 at concentrations of 3.75, 15, and 60 μM, in triplicate. Subsequently, supernatants containing planktonic (non-adherent) bacteria were collected and kept on ice. Peptide activity was neutralized by adding SPS (final concentration: 0.025% (v/v)). Adherent bacteria within HSEs were quantified by homogenizing the tissues in 0.5 mL PBS containing 0.025% (v/v) SPS, using five zirconia beads (Ø 2 mm; BioSpec Products, Bartlesville, OK, USA) in a MagNA Lyser System (Roche) for three cycles of 30 sec at 7000 rpm, with 30 sec cooling intervals on ice. Both supernatants and homogenized fractions were serially diluted, plated on blood agar, and incubated overnight at 37 °C to determine CFU counts.

Data set [8] concerns S. aureus JAR060131 biofilm. As to the kind of experiment: Biofilm killing. The following applies: 24 h biofilm. It is filed as cell-based, Staphylococcus aureus. Here is the method:
as §3, §4

As for Ac-KRWVKILKKVWRFL-NH2 [GDST-045], the “MIC S. aureus, constant throughout all passages” value in data set [1] was 0.47 µM. Moreover, the “SYTOX fluorescence intensity, A. baumannii” value in data set [2] was “fluorescence levels similar to heat-killed controls”. The “Concentration killing ≥3 log CFU of A. baumannii biofilm within 2 h” value in data set [3] (24 h biofilm, 2 h treatment in PBS, 1.88-120 μM, vs untreated biofilm) is given as 60 µM. Also, the “Reduction in A. baumannii biofilm CFU, 24 h treatment” value in data set [3] (at ≥60 µM, 24 h treatment) worked out at 3.5 log. In addition, the “Cytotoxicity Metabolic Activity <70%” value in data set [4] was 3.75 µM. Besides, in data set [5], the “Cytotoxicity LDH Leakage >30%” value was 3.75 µM. Also, the “MIC A. baumannii at passage 16 (peak)” value in data set [6] was 7.50 µM. In data set [6] (median of four replicates), the “MIC A. baumannii at the 1st passage” value worked out at 0.94 µM. Moreover, in data set [6] (serial passage at sub-inhibitory concentrations), the “MIC A. baumannii at the 22nd passage” value came to 0.47 µM. For the same substance, in data set [7] (adherent fraction, 4 h peptide exposure, tested 3.75, 15, 60 μM), the “Concentration eradicating adherent S. aureus in HSE” value is 15 µM. For the same substance, the “Effect on non-adherent S. aureus in HSE” value in data set [7] (at all tested concentrations (3.75 µM, 15 µM, and 60 µM), 4 h) is given as “completely eradicated”. For the same substance, the “Concentration giving ≥3-log reduction of S. aureus biofilm CFU within 2 h” value in data set [8] (2 h treatment in PBS) was ≥ 7.5 µM. Also, the “Concentration giving complete eradication of S. aureus biofilm within 24 h” value in data set [8] (24 h treatment in PBS) is ≥ 30 µM.
